What was measured:
[1] = target: T1, serotonin (5-HT) reuptake (Rattus norvegicus, UniProt P31652); assay: Inhibition of serotonin (5HT) reuptake in synaptosomes from rat brain; type: biochemical; details: test concentration of 10 μM
T1 construct: synaptosomes are freshly isolated from areas of the rat brain; from tissue; host or cells: rat brain synaptosomes (P2 fraction)
In short: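 Compounds screened at 10 μM and reported as percent inhibition of serotonin uptake. Uptake measured in a freshly prepared P2 synaptosomal fraction from rat brain.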

[2] = target: T2, human bradykinin 1 receptor (B1R) (Homo sapiens, UniProt P46663); assay: Functional investigation on the human bradykinin 1 receptor (B1R), Ca2+ FLIPR assay in CHO K1 hB1R cells; type: cell-based; details: B1R antagonism human; test substance 10 μM; Ca2+ FLIPR, CHO K1 hB1R cells
T2 construct: expressed in transfected cells; host or cells: CHO K1 cells
T2 sequence (P46663 1-353): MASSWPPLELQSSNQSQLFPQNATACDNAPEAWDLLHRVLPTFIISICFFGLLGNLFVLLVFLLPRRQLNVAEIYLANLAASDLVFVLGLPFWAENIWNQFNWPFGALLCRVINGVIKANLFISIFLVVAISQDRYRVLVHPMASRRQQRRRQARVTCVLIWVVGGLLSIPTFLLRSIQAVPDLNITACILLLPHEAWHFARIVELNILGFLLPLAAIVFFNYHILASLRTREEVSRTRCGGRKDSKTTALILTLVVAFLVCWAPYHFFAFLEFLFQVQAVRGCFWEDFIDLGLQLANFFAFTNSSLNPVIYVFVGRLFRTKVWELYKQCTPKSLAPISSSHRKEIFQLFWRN
In short: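 Peak Ca2+-dependent fluorescence in B1R-transfected CHO K1 cells measures antagonism of an EC80 agonist challenge given 10-20 min after compound. Agonist is Lys-Des-Arg9-bradykinin for human, Des-Arg9-bradykinin for rat receptor.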

T1 sequence (P31652 whole entry): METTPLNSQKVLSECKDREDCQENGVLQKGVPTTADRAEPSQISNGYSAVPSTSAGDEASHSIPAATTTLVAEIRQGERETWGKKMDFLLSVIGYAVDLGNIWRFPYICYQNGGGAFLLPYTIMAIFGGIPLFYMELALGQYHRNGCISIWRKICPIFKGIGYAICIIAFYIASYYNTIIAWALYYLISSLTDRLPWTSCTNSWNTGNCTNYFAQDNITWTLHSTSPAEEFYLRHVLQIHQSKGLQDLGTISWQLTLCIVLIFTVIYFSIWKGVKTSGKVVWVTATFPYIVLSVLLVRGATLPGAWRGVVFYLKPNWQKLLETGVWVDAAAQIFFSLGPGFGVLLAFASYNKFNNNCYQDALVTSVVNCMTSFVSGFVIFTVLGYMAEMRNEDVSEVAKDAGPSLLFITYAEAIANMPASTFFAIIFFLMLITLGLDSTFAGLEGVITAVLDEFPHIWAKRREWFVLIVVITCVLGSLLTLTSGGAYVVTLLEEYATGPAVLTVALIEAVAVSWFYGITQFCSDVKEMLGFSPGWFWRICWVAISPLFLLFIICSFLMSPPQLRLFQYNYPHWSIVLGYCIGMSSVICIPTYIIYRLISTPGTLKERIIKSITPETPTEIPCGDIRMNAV

SMILES	5-HT (inhibition of reuptake of serotonin, % inhibition) [1] [%]	B1R Ant. h [10 μM] % Inhibition [2] [%]
CN(C)C(c1cccc(F)c1)C1CCC(CNC(=O)COC2CCCN(S(=O)(=O)c3ccccc3)C2)CC1 (stereo not shown) [Example 309]	94	−4
CCN(CCOCC(=O)NCC1CCC(C(c2ccc(Cl)cc2)N(C)C)CC1)S(=O)(=O)c1c(C)cc(OC)c(C)c1C (stereo not shown) [Example 310]	83	89
COc1ccc(S(=O)(=O)N2CCCCC2COCC(=O)NCCC2CCC(C(c3ccc(Cl)cc3)N(C)C)CC2)cc1 (stereo not shown) [Example 311]	95	69
COc1ccc(S(=O)(=O)N2CCCCC2CCOCC(=O)NCC2CCC(C(c3ccc(Cl)cc3)N(C)C)CC2)cc1 (stereo not shown) [Example 312]	89	71
COc1ccc(S(=O)(=O)N2CCCC2COCC(=O)NCC2CCC(C(c3cccc(F)c3)N(C)C)CC2)cc1 (stereo not shown) [Example 313]	93	34
CN(C)C(c1ccc(Cl)cc1)C1CCC(CNC(=O)COCCN(C)S(=O)(=O)c2cccc(C(F)(F)F)c2)CC1 (stereo not shown) [Example 314]	93	74
COc1cc(C)c(S(=O)(=O)N(C)CCOCC(=O)NCCC2CCC(C(c3ccc(Cl)cc3)N(C)C)CC2)c(C)c1C (stereo not shown) [Example 317]	88	103
CN(C)C(c1ccc(Cl)cc1)C1CCC(CNC(=O)COCCN(C)S(=O)(=O)c2c(Cl)cc(Cl)cc2Cl)CC1 (stereo not shown) [Example 318]	91	104
COc1cc(C)c(S(=O)(=O)N2CCC(CCOCC(=O)NCC3CCC(C(c4cccc(F)c4)N(C)C)CC3)CC2)c(C)c1C (stereo not shown) [Example 319]	87	0
COc1cc(C)c(S(=O)(=O)N2CCN(CCOCC(=O)NCCC3CCC(C(c4ccc(Cl)cc4)N(C)C)CC3)CC2)c(C)c1C (stereo not shown) [Example 320]	98	73
COc1ccc(S(=O)(=O)N2CCCCC2COCC(=O)NCC2CCC(C(c3ccc(Cl)cc3)N(C)C)CC2)cc1 (stereo not shown) [Example 321]	86	94
COc1ccc(S(=O)(=O)N2CCCCC2COCC(=O)NC2CCC(C(c3cccc(F)c3)N(C)C)CC2)c(OC)c1 (stereo not shown) [Example 322]	78	−14
COc1ccc(S(=O)(=O)N2CCC(OCC(=O)NC3CCC(C(c4cccc(F)c4)N(C)C)CC3)C2)cc1OC (stereo not shown) [Example 323]	91	−14
COc1ccc(S(=O)(=O)N(C)CCOCC(=O)NCC2CCC(C(c3ccc(Cl)cc3)N(C)C)CC2)cc1 (stereo not shown) [Example 324]	83	42
CN(C)C(c1cccc(F)c1)C1CCC(CCNC(=O)COCCN2CCN(S(=O)(=O)c3ccccc3)CC2)CC1 (stereo not shown) [Example 325]	96	45
CN(C)C(c1cccc(F)c1)C1CCC(CCNC(=O)COC2CCCN(S(=O)(=O)c3ccccc3)C2)CC1 (stereo not shown) [Example 326]	97	−5
CCN(CCOCC(=O)NCC1CCC(C(c2ccc(F)cc2)N(C)C)CC1)S(=O)(=O)c1c(C)cc(OC)c(C)c1C (stereo not shown) [Example 327]	90	101
COc1ccc(S(=O)(=O)N2CCCCC2COCC(=O)NCC2CCC(C(c3cccc(F)c3)N(C)C)CC2)cc1OC (stereo not shown) [Example 329]	91	−17
CN(C)C(c1ccc(F)cc1)C1CCC(NC(=O)COC2CCN(S(=O)(=O)c3cccc(C(F)(F)F)c3)C2)CC1 (stereo not shown) [Example 330]	90	−6

SMILES	5-HT (inhibition of reuptake of serotonin, % inhibition) [1] [%]	B1R Ant. h [10 μM] % Inhibition [2] [%]
CN(C)C(c1ccc(Cl)cc1)C1CCC(CNC(=O)COC2CCN(S(=O)(=O)c3cccc(C(F)(F)F)c3)C2)CC1 (stereo not shown) [Example 331]	84	30
Cc1cc(C)c(S(=O)(=O)N2CCC(OCC(=O)NC3CCC(C(c4ccc(F)cc4)N(C)C)CC3)C2)c(C)c1 (stereo not shown) [Example 332]	88	57
CN(C)C(c1cccc(F)c1)C1CCC(CNC(=O)COCCC2CCN(S(=O)(=O)c3ccccc3)CC2)CC1 (stereo not shown) [Example 333]	84	17
CN(C)C(c1ccc(F)cc1)C1CCC(CNC(=O)COCCN(C)S(=O)(=O)c2c(Cl)cccc2Cl)CC1 (stereo not shown) [Example 334]	83	103
CN(C)C(c1cccc(F)c1)C1CCC(NC(=O)COC2CCN(S(=O)(=O)c3ccccc3)CC2)CC1 (stereo not shown) [Example 335]	93	−8
CN(C)C(c1ccc(F)cc1)C1CCC(NC(=O)COCCN(Cc2ccccc2)S(=O)(=O)c2ccccc2)CC1 (stereo not shown) [Example 336]	96	20
CN(C)C(c1ccc(F)cc1)C1CCC(CCNC(=O)COCC2CCCCN2S(=O)(=O)c2ccc(Cl)c(Cl)c2)CC1 (stereo not shown) [Example 337]	96	51
COc1ccc(S(=O)(=O)N2CCC(OCC(=O)NCCC3CCC(C(c4ccc(Cl)cc4)N(C)C)CC3)C2)cc1OC (stereo not shown) [Example 338]	86	−3
COc1ccc(S(=O)(=O)N(C)CCOCC(=O)NCCC2CCC(C(c3ccc(Cl)cc3)N(C)C)CC2)cc1OC (stereo not shown) [Example 339]	78	−9
COc1ccc(S(=O)(=O)N(C)CCOCC(=O)NCC2CCC(C(c3cccc(F)c3)N(C)C)CC2)cc1 (stereo not shown) [Example 340]	81	39
CN(C)C(c1cccs1)C1CCC(NC(=O)COCCN2CCN(S(=O)(=O)c3ccccc3)CC2)CC1 (stereo not shown) [Example 341]	85	−1
CN(C)C(c1ccc(F)cc1)C1CCC(CNC(=O)COCCN(Cc2ccccc2)S(=O)(=O)c2ccccc2)CC1 (stereo not shown) [Example 342]	94	28
CN(C)C(c1ccc(Cl)cc1)C1CCC(CNC(=O)COCCN(Cc2ccccc2)S(=O)(=O)c2ccccc2)CC1 (stereo not shown) [Example 343]	94	12
CN(C)C(c1ccc(F)cc1)C1CCC(NC(=O)COCC2CCCN2S(=O)(=O)c2ccc(Cl)c(Cl)c2)CC1 (stereo not shown) [Example 344]	97	65
COc1ccc(S(=O)(=O)N2CCCCC2COCC(=O)NCC2CCC(C(c3ccc(F)cc3)N(C)C)CC2)cc1 (stereo not shown) [Example 345]	92	76
COc1ccc(S(=O)(=O)N2CCCC2COCC(=O)NCCC2CCC(C(c3ccc(Cl)cc3)N(C)C)CC2)cc1 (stereo not shown) [Example 346]	95	52
CN(C)C(c1ccc(Cl)cc1)C1CCC(CCNC(=O)COCCN(C)S(=O)(=O)c2ccc(Cl)cc2)CC1 (stereo not shown) [Example 347]	93	85
COc1cc(C)c(S(=O)(=O)N(C)CCOCC(=O)NCC2CCC(C(c3ccc(Cl)cc3)N(C)C)CC2)c(C)c1 (stereo not shown) [Example 348]	83	103
COc1ccc(S(=O)(=O)N2CCCCC2COCC(=O)NCCC2CCC(C(c3ccc(F)cc3)N(C)C)CC2)cc1 (stereo not shown) [Example 349]	94	68

Source: patent US8106055B2, “Substituted amide compounds” (Gruenenthal GmbH, priority 2007, dated 2012)
